{"source": "patent US20150072881A1", "about": "(priority 2010, published 2015)", "origin": "cited, not measured here", "key": {"[1]": {"tested_on": "genes (and gene products, eg., mRNA or protein)", "conditions": "in vivo"}, "[2]": {"tested_on": "Pomc", "conditions": "anterior pituitary cell line"}, "[3]": {"tested_on": "cAMP"}, "[4]": {"tested_on": "MAPK/ERK"}, "[5]": {"tested_on": "dopamine", "conditions": "directly or indirectly"}, "[6]": {"tested_on": "pronociceptin (PNOC)", "conditions": "hippocampus of alcoholics"}, "[7]": {"tested_on": "opiate receptor-like 1 (OPRL-1)", "conditions": "amygdala of alcoholics"}, "[8]": {"tested_on": "Sgk1", "conditions": "Western blotting; morphine-induced"}, "[9]": {"tested_on": "Tsc22d3", "conditions": "Western blotting; drug-regulated gene"}, "[10]": {"tested_on": "PC12 clonal cell line from chromaffin adrenal cells"}, "[11]": {"tested_on": "Leptin receptor expression in VTA"}}, "note": "Entries after “also recorded” stand apart in the source; their conditions may differ. Ends that are not written are not given here.", "data": [{"molecule": "N[C@@H]1C[C@H]1c1ccccc1", "note": "(racemic) [Tranylcypromine]", "values": [{"measurement": "mRNA increase", "setting": "[1]", "result": "dopamine D3 receptor mRNA in shell of the nucleus accumbens"}]}, {"molecule": "Nc1ncnc2c1ncn2[C@@H]1O[C@@H]2COP(O)(=S)O[C@H]2[C@H]1O", "note": "(single isomer, unassigned) [Rp-cAMPS, adenosine-3′,5′ cyclinc monophosphorothioate, Rp-isomer]", "values": [{"measurement": "blockade of substance-induced mRNA increase", "setting": "[1]", "result": "CART - effect attenuated by inhibition of PKA with H89 [N-(2-"}]}, {"molecule": "CN(C)CCC=C1c2ccccc2CCc2ccccc21", "note": "[Amitriptyline]", "values": [{"measurement": "mRNA increase", "setting": "[1]", "result": "dopamine D3 receptor mRNA in shell of the nucleus accumbens;; also recorded: D1 and D2 receptors [1]"}]}, {"molecule": "CC(N)Cc1ccccc1", "note": "(stereo not drawn) [Amphetamine]", "values": [{"measurement": "mRNA decrease", "setting": "[1]", "result": "Penk in CeA and anterior medial CPu [1]; also recorded: GluR1 in nucleus acumbens shell, GluR2 in core and shell [3]"}, {"measurement": "mRNA increase", "setting": "[1]", "result": "Penk in frontal cortex; Pdyn in AMG [1]; also recorded: mGluR8 in rat dorsal and ventral striatum, as well as cortex,; also recorded: After 3 days of withdrawl, GluR1 in PFC [3]; also recorded: Mu receptors in VTA; Pdyn in CPu and NAc [1]"}]}, {"molecule": "CCCCCCC(C)(C)c1ccc([C@@H]2C[C@H](O)CC[C@H]2CCCO)c(O)c1", "note": "[CP-55,940]", "values": [{"measurement": "mRNA increase", "setting": "[1]", "result": "Increased Penk in NAc and CPu, Tu and Pir, HPT (both PVN"}]}, {"molecule": "CNCCCN1c2ccccc2CCc2ccccc21", "note": "[Desipramine]", "values": [{"measurement": "mRNA increase", "setting": "[1]", "result": "dopamine D3 receptor mRNA in shell of the nucleus accumbens"}]}, {"molecule": "COc1ccc2c(c1)[C@]13CCCC[C@@H]1[C@H](C2)N(C)CC3", "note": "[Dextromethorphan]", "values": [{"measurement": "mRNA increase", "setting": "[1]", "result": "40 mg/kg ip in rats caused increase of tyrosine hydroxylase (TH)"}]}, {"molecule": "Cl.O=S(=O)(NCCNCC=Cc1ccc(Br)cc1)c1cccc2cnccc12", "note": "[H89, N-(2-[p-bromocinnamylamino]ethyl)-5-isoquinoline-sulfonamide hudrochloride]", "values": [{"measurement": "blockade of substance-induced mRNA increase", "setting": "[1]", "result": "CART - effect attenuated by inhibition of PKA with H89 [N-(2-"}]}, {"molecule": "CC(=O)Oc1ccc2c3c1O[C@H]1[C@@H](OC(C)=O)C=C[C@H]4[C@@H](C2)N(C)CC[C@@]341", "note": "[Heroin]", "values": [{"measurement": "mRNA decrease", "setting": "[1]", "result": "DAT in paranigral nucleus and mesolimbic division of the ventral tegmental; also recorded: area. Reduction of Nurr1expression with age in heroin users [2]; also recorded: tyrosine hydroxylase in mesolimbic dopamine neurons [3]"}, {"measurement": "mRNA increase", "setting": "[1]", "result": "heroin abuse. Express higher Penk mRNA [1]; also recorded: TH and alpha synuclein in VTA PN in heroin users with no; also recorded: Penk; NAc PENK in Met/Met (control) heroin abusers [3]"}]}, {"molecule": "CN(C)CCCN1c2ccccc2CCc2ccccc21", "note": "[Imipramine]", "values": [{"measurement": "mRNA increase", "setting": "[1]", "result": "dopamine D3 receptor mRNA in shell of the nucleus accumbens;"}]}, {"molecule": "CC(C)C[C@H](N)C(=O)O", "note": "[Leucine]", "values": [{"measurement": "mRNA decrease", "setting": "[1]", "result": "FTO in hypothalamus of rodents [1]"}]}, {"molecule": "CN[C@@H](C)Cc1ccccc1", "note": "[Methamphetamine]", "values": [{"measurement": "mRNA increase", "setting": "[1]", "result": "Pdyn in HPT [1]; also recorded: Increased TNF-alpha in normal animals [2]"}]}, {"molecule": "CCCCCCCCCC(=O)O[C@H]1CC[C@H]2[C@@H]3CCC4=CC(=O)CC[C@@H]4[C@H]3CC[C@]12C", "note": "[Nandrolone decanoate]", "values": [{"measurement": "mRNA decrease", "setting": "[1]", "result": "Dopamine D(1)-receptor subtype in the caudate putamen and nucleus"}, {"measurement": "mRNA increase", "setting": "[1]", "result": "Dopamine D(2) receptor at the lowest doeses in the caudate"}]}, {"molecule": "CC1NCCc2cc(O)c(O)cc21", "note": "(stereo not drawn) [R (+)- salsolinol]", "values": [{"measurement": "mRNA decrease", "setting": "[2]", "result": "POMC anterior pituitary cell line [1]"}, {"measurement": "cAMP level / production", "setting": "[3]", "result": "whereas R(+)- SAL does not affect cAMP production [1]"}]}, {"molecule": "CCCCC/C=C\\C/C=C\\C/C=C\\C/C=C\\CCCC(=O)N[C@H](C)CO", "note": "[R-methanandamide]", "values": [{"measurement": "mRNA increase", "setting": "[1]", "result": "Increased Penk in NAc and CPu, Tu and Pir, HPT (both PVN"}]}, {"molecule": "C[C@@H]1NCCc2cc(O)c(O)cc21", "note": "[S(−)-salsolinol]", "values": [{"measurement": "mRNA decrease", "setting": "[2]", "result": "POMC anterior pituitary cell line [1]"}, {"measurement": "cAMP level / production", "setting": "[3]", "result": "Decrease in cAMP level occurs after treatment with S(−)-SAL,"}]}, {"molecule": "Cc1c(C(=O)NN2CCCCC2)nn(-c2ccc(Cl)cc2Cl)c1-c1ccc(Cl)cc1", "note": "[SR 141716A]", "values": [{"measurement": "inhibition of THC-induced MAPK/ERK activation", "setting": "[4]; in vivo", "result": "accumbens. This activation is totally inhibited by selective"}]}, {"molecule": "CCCCCc1cc(O)c2c(c1)OC(C)(C)[C@@H]1CCC(C)=C[C@@H]21", "note": "[THC, Delta-tetrahydrocannabinol]", "values": [{"measurement": "activation (phosphorylation) of MAPK/ERK", "setting": "[4]; dorsal striatum and nucleus accumbens", "result": "THC induces a progressive and transient activation"}, {"measurement": "effect on dopamine release or re-uptake", "setting": "[5]", "result": "enhance release or block re-uptake of dopamine"}, {"measurement": "mRNA increase", "setting": "[1]", "result": "Increased Penk in NAc and CPu, Tu and Pir, HPT (both PVN; also recorded: BDNF in reward center (nucleus accumbens, medial prefrontal"}]}, {"molecule": "CCCN(CCC)C1Cc2cc(OC)c(OC)cc2C1", "note": "[U99194A]", "values": [{"measurement": "mRNA increase", "setting": "[1]", "result": "c-fos (similar pattern to that produced by d-amphetamine) in"}]}, {"molecule": "CCO", "note": "[ethanol]", "values": [{"measurement": "effect on dopamine release or re-uptake", "setting": "[5]", "result": "enhance release or block re-uptake of dopamine"}, {"measurement": "pronociceptin (PNOC) mRNA decrease", "setting": "[6]", "result": "pronociceptin (PNOC), 1.7-fold in hippocampus of alcoholics"}, {"measurement": "opiate receptor-like 1 (OPRL-1) mRNA decrease", "setting": "[7]", "result": "opiate receptor-like 1 (OPRL-1) 1.4-fold in amygdala of alcoholics [2]"}]}, {"molecule": "CN1CC[C@]23c4c5ccc(O)c4O[C@H]2[C@@H](O)C=C[C@H]3[C@H]1C5", "note": "[morphine]", "values": [{"measurement": "level of the Sgk1 protein (significant decrease)", "setting": "[8]", "result": 0.75, "unit": "fold"}, {"measurement": "Tsc22d3 protein level (increase)", "setting": "[9]", "result": "approximately 1.5 fold"}]}, {"molecule": "CN1CCCC1c1cccnc1", "note": "(stereo not drawn) [nicotine]", "values": [{"measurement": "effect on dopamine release or re-uptake", "setting": "[5]", "result": "enhance release or block re-uptake of dopamine"}, {"measurement": "mRNA decrease", "setting": "[1]", "result": "POMC in MBH which was observed after 21 days of spontaneous; also recorded: withdrawl from nicotine; Pdyn in ventral shell of NAc [1]"}, {"measurement": "mRNA increase", "setting": "[1]", "result": "Mu receptors in VTA; POMC in Arc; POMC in AL of the; also recorded: pituitary; Pdyn in CPu after nicotine withdrawl; Pdvn in HPT [1]; also recorded: c-fos in bed nucleus of stria terminalis, nucleus accumbens shell; also recorded: CREB phosphorylation when exposed to situation where; also recorded: MOR expression [4]; also recorded: c fos in limbic regions of adolescents [5]"}, {"measurement": "mRNA decrease", "setting": "[10]", "result": "Dopamine D2 receptor and tyrosine hydroxylase in PC12 clonal cell line"}]}, {"molecule": "CC(N)Cc1ccc(Cl)cc1", "note": "(stereo not drawn) [para-chloroamphetamine]", "values": [{"measurement": "mRNA decrease", "setting": "[1]", "result": "[1] repeated stress in pre-treated rats led to downregulation of BDNF mRNA"}, {"measurement": "mRNA increase", "setting": "[1]", "result": "[1] repeated stress in pre-treated animals led to less"}]}, {"molecule": "CCN1CCC[C@H]1CNC(=O)c1c(O)c(Cl)cc(Cl)c1OC", "note": "[raclopride]", "values": [{"measurement": "blockade of substance-induced mRNA increase", "setting": "[1]", "result": "Cart in nucleus accumbens (effect blocked by both SCH-"}]}, {"molecule": "Leptin: Leptin administered directly to VTA", "values": [{"measurement": "firing rate", "setting": "[11]; VTA", "result": "reduction"}, {"measurement": "intracellular JAK-STAT pathway", "setting": "[11]; VTA", "result": "activates"}, {"measurement": "food intake", "setting": "[11]; direct administration to VTA", "result": "Direct administration of leptin to VTA caused decreased food intake while"}]}, {"molecule": "Substance P (RPKPQQFFGLM; not fully specified (C-terminus); ends and bridges not checked; UniProt P20366 58-68, looked up)", "values": [{"measurement": "mRNA decrease", "setting": "[1]", "result": "D2 receptor in nucleus accumbens and frontal cortex [1]"}]}]}
